Laboratory results as given in US20040009890A1, “Broad spectrum inhibitors” (priority 2002, published 2004).

System: wild type and multidrug resistant HIV strains
Experiment: Antiviral activity against wild type HIV and multidrug resistant patient isolates (PHA-PBMC, p24 Gag production)
Assay type: cell-based
Details: for antiviral potency against multidrug resistant HIV strains compared with wild type: wild type vs multidrug resistant HIV strains; for antiviral activity against HIV derived from patient isolates that contain multiple mutations, compared with wild type HIV strains: patients never exposed to the tested compounds
Description: IC50 's for broad spectrum protease inhibitors can be measured against wild type HIV and clinically isolated mutant HIV isolates, utilizing the PHA-PBMC exposed to HIV-1 (50 TCID50 dose/[…] PBMC) as target cells and using the inhibition of p24 Gag protein production as an endpoint. The amounts of p24 antigen produced by the cells can be determined on day 7 in culture using a commercially available radioimmunoassay kit.

| Structure (SMILES) | antiviral potency against multidrug resistant HIV strains compared with wild type | antiviral activity against HIV derived from patient isolates that contain multiple mutations, compared with wild type HIV strains |
| --- | --- | --- |
| CC(C)(C)NC(=O)[C@@H]1C[C@@H]2CCCC[C@@H]2CN1C[C@@H](O)[C@H](Cc1ccccc1)NC(=O)[C@H](CC(N)=O)NC(=O)c1ccc2ccccc2n1 [Compound 4, Saquinavir] | dramatically less potent against the multidrug resistant strains of HIV |  |
| Cc1c(O)cccc1C(=O)N[C@@H](CSc1ccccc1)[C@H](O)CN1C[C@H]2CCCC[C@H]2C[C@H]1C(=O)NC(C)(C)C [Compound 7, Nelfinavir] | dramatically less potent against the multidrug resistant strains of HIV |  |
| CC(C)c1nc(CN(C)C(=O)N[C@H](C(=O)N[C@@H](Cc2ccccc2)C[C@H](O)[C@H](Cc2ccccc2)NC(=O)OCc2cncs2)C(C)C)cs1 [Compound 5, Ritonavir] | dramatically less potent against the multidrug resistant strains of HIV |  |
| CC(C)CN(C[C@@H](O)[C@H](Cc1ccccc1)NC(=O)O[C@H]1CCOC1)S(=O)(=O)c1ccc(N)cc1 [Compound 2, Amprenavir] | dramatically less potent against the multidrug resistant strains of HIV | much less effective against the same mutant viruses |
| COc1ccc(S(=O)(=O)N(CC(C)C)C[C@@H](O)[C@H](Cc2ccccc2)NC(=O)O[C@H]2CO[C@H]3OCC[C@H]32)cc1 [Compound 1] | equally effective against wild type and mutant HIV strains | equivalent to their activity against wild type HIV strains |
| CC(C)(C)NC(=O)[C@@H]1CN(Cc2cccnc2)CCN1C[C@@H](O)C[C@@H](Cc1ccccc1)C(=O)N[C@H]1c2ccccc2C[C@H]1O [Compound 6, Indinavir] | dramatically less potent against the multidrug resistant strains of HIV |  |
